Measurements taken from ChEMBL document CHEMBL4007423, “Discovery of quinone-directed antitumor agents selectively bioactivated by NQO1 over CPR with improved safety profile” (Eur J Med Chem, 2017).
The source made the active and inactive calls. The rule behind the calls is not given here.

Experiments:
[1] = target: T1, NADPH--cytochrome P450 reductase (Homo sapiens, UniProt P16435); assay: Substrate activity at recombinant human CPR expressed in baculovirus infected insect cells assessed as compound reduction rate by measuring NADPH consumption per umol of enzyme preincubated for 3 mins followed by NADPH addition measured for 5 mins at 2 sec time interval by UV-Visible spectroscopic method; format: ADME
T1 sequence (P16435 whole entry): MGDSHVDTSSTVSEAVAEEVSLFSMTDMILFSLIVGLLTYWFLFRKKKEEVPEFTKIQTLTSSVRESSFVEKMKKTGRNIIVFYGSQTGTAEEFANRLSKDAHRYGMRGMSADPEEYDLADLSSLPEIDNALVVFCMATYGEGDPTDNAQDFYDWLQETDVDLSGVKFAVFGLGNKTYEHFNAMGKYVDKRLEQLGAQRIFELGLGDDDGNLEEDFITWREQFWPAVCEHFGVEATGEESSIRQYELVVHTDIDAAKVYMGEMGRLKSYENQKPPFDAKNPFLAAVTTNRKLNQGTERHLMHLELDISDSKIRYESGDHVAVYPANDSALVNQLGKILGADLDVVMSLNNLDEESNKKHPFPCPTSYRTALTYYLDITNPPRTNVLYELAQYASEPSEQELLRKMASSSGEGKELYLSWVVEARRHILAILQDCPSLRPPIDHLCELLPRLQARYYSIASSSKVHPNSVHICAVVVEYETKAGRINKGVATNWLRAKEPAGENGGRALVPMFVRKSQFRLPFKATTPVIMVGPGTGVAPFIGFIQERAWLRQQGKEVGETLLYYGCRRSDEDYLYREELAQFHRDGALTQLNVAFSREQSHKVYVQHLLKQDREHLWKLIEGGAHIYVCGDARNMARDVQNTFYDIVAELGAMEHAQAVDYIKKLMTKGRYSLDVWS

[2] = Electrochemical behavior of the compound assessed as electrochemical redox potential with reference to ferrocene at 1 mM using Ag/AgCl reference electrode measured up to -2 V at potential sweep rates of 50 mV/s by cyclic voltammetry
A549 [3] = assay: Antitumor activity against human A549 cells xenografted in athymic nude mouse assessed as tumor growth inhibition at 30 mg/kg, iv administered every other day for 3 weeks measured twice per week during compound dosing relative to control; format: functional; conditions: 504 h, read-out: TGI
[4] = target: T1, NADPH--cytochrome P450 reductase; assay: Substrate activity at CPR in human L02 cells assessed as CPR-mediated one-electron reduction of compound by measuring cell growth inhibition at 20 to 100 uM treated for >8 hrs measured after 72 hrs by MTT assay; format: cell-based
Homo sapiens = organism: Homo sapiens; assay: Selectivity ratio of compound reduction rate catalyzed by recombinant human NQO1 expressed in Escherichia coli to compound reduction rate catalyzed by recombinant human CPR expressed in baculovirus infected insect cells
[5] = Selectivity ratio of IC50 for substrate activity at CPR in human L02 cells assessed as cell growth inhibition to IC50 for substrate activity at NQO1 in human A549 cells assessed as cell growth inhibition
A549 [6] = assay: Antitumor activity against human A549 cells xenografted in athymic nude mouse assessed as tumor growth inhibition at 15 mg/kg, iv administered every other day for 3 weeks measured twice per week during compound dosing; format: functional, organism-based
Mus musculus [7] = assay: Toxicity in athymic nude mouse xenografted with human A549 cells assessed as change in body weight at 15 to 30 mg/kg, iv administered every other day for 3 weeks measured twice per week during compound dosing; format: organism-based; conditions: in vivo, 504 h
Mus musculus [8] = assay: Toxicity in athymic nude mouse xenografted with human A549 cells assessed as change in body weight at 30 mg/kg, iv administered every other day for 3 weeks measured twice per week during compound dosing; format: organism-based; conditions: in vivo, 504 h
A549 [9] = assay: Cytotoxicity against NQO1 inhibitor dicoumarol pretreated human A549 cells assessed as cell growth inhibition treated for 24 hrs measured after 72 hrs by MTT assay; format: functional, cell-based
NCI-H596 = assay: Cytotoxicity against NQO1-deficient human NCI-H596 cells assessed as cell growth inhibition treated for 24 hrs measured after 72 hrs by MTT assay; format: functional, cell-based

Compound | Activity [1] [µmol/min] | Activity [2] [V] | Selectivity ratio (Homo sapiens) | also measured
COc1cccc2c1C1=C(C(=O)C2=O)C(C)(C)C(C)O1 (configuration not stated) | 764 | -1.1 |  | 
CC1(C)CCC2=C(O1)c1ccccc1C(=O)C2=O [LAPACHONE] | 923 | -1.02 |  | inhibition in vivo at 30 mg/kg (A549 [3]): 70.7%; growth inhibition (GI) [4]: Active
CCc1coc2c1C(=O)C(=O)c1ccccc1-2 | 1382 |  | 0.54 | 
Cc1cc(=O)n(C)c2c1C(=O)C1=C(C=CC(C)(C)O1)C2=O | 1422 | -0.9 | 0.81 | 
CC1OC2=C(C(=O)c3ccccc3C2=O)C1(C)C (stereo not drawn) [ALPHA-DUNNIONE] | 1011 | -1.19 | 0.72 | 
O=C1C(=O)c2ccoc2-c2ccccc21 | 1221 | -0.98 | 1.18 | 
Cc1ccc2c(c1)-c1occ(C)c1C(=O)C2=O | 835 | -1.05 | 1.25 | Ratio IC50 [5]: 1.54
CC1CC2=C(O1)c1ccccc1C(=O)C2=O (configuration not stated) | 905 |  | 0.71 | 
Cc1ccc2c(c1)C(=O)C(=O)c1c(C)coc1-2 | 891 | -1.04 | 1.82 | Ratio IC50 [5]: 2.59
COc1ccc2c(c1)C1=C(C(=O)C2=O)C(C)(C)C(C)O1 (configuration not stated) | 812 | -1.13 |  | 
CC1OC2=C(C(=O)C(=O)c3ccccc32)C1(C)C (configuration not stated) | 1437 | -1.01 | 0.7 | 
COc1ccc2c(c1)C(=O)C(=O)C1=C2OC(C)C1(C)C (configuration not stated) | 782 | -1.09 |  | 
Cc1coc2c1C(=O)C(=O)c1c(C)ccc(C)c1-2 | 672 | -1.07 | 1.38 | Ratio IC50 [5]: 5.86
Cc1cc2c(cc1C)-c1occ(C)c1C(=O)C2=O | 142 | -1.09 |  | TGI (A549 [6]): Active; inhibition in vivo at 30 mg/kg (A549 [3]): 67.5%; Activity (Mus musculus [7]): Non-Toxic; Activity (Mus musculus [8]): Non-Toxic; IC50 (A549 [9]): 21 µM; IC50 (NCI-H596): 35 µM; Ratio IC50 [5]: 10.6
Cc1coc2c1C(=O)C(=O)c1ccccc1-2 | 1201 | -1.03 | 0.63 | 
CC1OC2=C(C(=O)C(=O)c3ccccc32)C1C (configuration not stated) | 659 |  | 1.1 | 
CCc1coc2c1C(=O)C(=O)c1ccc(C)cc1-2 | 1014 |  | 1.17 | 
CCc1coc2c1C(=O)C(=O)c1cc(C)c(C)cc1-2 | 818 |  |  | 
CC1(C)C=CC2=C(O1)C(=O)c1ccccc1C2=O [DEHYDRO-ALPHA-LAPACHONE] | 852 | -1.22 | 0.91 | 
CC1(C)CC2=C(O1)c1ccccc1C(=O)C2=O [NOR-BETA-LAPACHONE] | 1427 |  | 0.52 | 
Cc1cc2c(cc1C)-c1occc1C(=O)C2=O | 400 |  |  | 
CCc1coc2c1C(=O)C(=O)c1cc(C)ccc1-2 | 796 |  | 1.63 | Ratio IC50 [5]: 8.06
CC1(C)CCC2=C(O1)C(=O)c1ccccc1C2=O [ALPHA-LAPACHONE] | 1010 | -1.22 | 0.72 | 
